ChEMBL document CHEMBL1146233, “Modification of the ceramide moiety of isoglobotrihexosylceramide on its agonist activity in stimulation of invariant natural killer T cells” (J Med Chem, 2007)
Active and inactive are the calls of the source. No cut-off for these calls is given here.

What was measured:
iNKT [1] = experiment: Stimulation of hCD1d-restricted human iNKT cells assessed as IFN-gamma release at 10 ng/mL by ELISA; type: functional, cell-based
iNKT [2] = experiment: Stimulation of hCD1d-restricted human iNKT cells assessed as IL4 release at 10 ng/mL by ELISA; type: functional, cell-based
[3] = Binding affinity to T cell receptor; type: cell-based, Homo sapiens

In the case of `CCCCCCCCCCCCCCCCCCCCCCCCCC(=O)N[C@@H](CO[C@H]1O[C@H](CO)[C@H](O)[C@H](O)[C@H]1O)[C@H](O)[C@H](O)CCCCCCCCCCCCCC` [RGI-7000], the Activity (iNKT [1]) is reported as “Active”, the Activity (iNKT [2]) is reported as “Active” and the Kd [3] is reported as 350 nM.
